Results: paper PMC11585928, “Screening the Global Health Priority Box against Plasmodium berghei liver stage parasites using an inexpensive luciferase detection protocol” (Malaria Journal, 2024)

Tests used:
[1] = test system: P. berghei liver schizonts; parameters: method as in PMID 30523084; conditions: read-out: EC50 against P. berghei liver schizonts (reported); cited from earlier work
[2] = test system: P. berghei liver schizonts; test: GHPB single point primary screen, FLAR luciferase endpoint; format: cell-based, Plasmodium berghei; conditions: 1 µM; hit = > 80% inhibition of P. berghei and < 15% inhibition of HepG2
Protocol: The GHPB is an open-access collection of compounds (80 for vector control, 80 for zoonotic and neglected diseases, 80 for drug resistant malaria) obtained from MMV. The library was supplied in a 96-well microtitre plate and moved into a low-volume 384-well plate (Greiner Bio-One, cat 784,261) using a Biomek NXp to transfer 5 μL of 1 mM compound into the destination wells. MMV390048 (1 µM) was used for the positive control wells and DMSO (0.1% v/v) was used for the negative control wells. The GHPB was screened by seeding 5 × 10^3 cells/well which, after 24 h, were infected with a maximum available inoculum of 1.44 × 10^3 sporozoites/well. Three hours post-infection, plates were treated with a pin tool as described above. After 44 h, media was dumped from the plate, lysed using the freeze/thaw method, and luciferase signal was detected with 1 × FLAR as described above.

HepG2 cells = test: HepG2 cytotoxicity assay in galactose media, 72 h, hepatic nuclei count by HCI; format: cell-based, Homo sapiens
Protocol: To assess the general cytotoxicity of GHPB compounds, HepG2 cells were cultured in media containing galactose instead of glucose to avoid false negatives due to the Crabtree effect. Following propagation of HepG2 in T-75 flasks with glucose-containing media as above, media was aspirated, the cell monolayer was washed with PBS, and then cells were trypsinized as above. Released cells were then resuspended in media containing glucose-free DMEM (Gibco, cat 11,966–025) supplemented with 10% FBS (Corning, cat 35–016-CV), 10 mM galactose (Sigma, cat G5388), 1 mM sodium pyruvate (Corning, cat 25–000-CI), 1 × penicillin–streptomycin-neomycin mix (Gibco, cat 15,640–055), and 2 mM L-glutamine (Gibco, cat 25,030–081). The cell density was calculated using trypan blue exclusion on a haemocytometer, diluted to 50 cells/µL, and 40 µL of cells were seeded into collagen-coated 384-well plates (Greiner Bio-One, cat 781,956) using a Biomek NXp (Beckman Coulter), resulting in 2 × 10^3 cells/well. The day after seeding, plates were treated with a pin tool as above and cultured for 72 h. Plates were then fixed with 4% paraformaldehyde, stained with 10 µg/mL Hoechst 33,342, and imaged on an ImageXpress Micro Confocal. Hepatic nuclei were quantified using MetaXpress (Molecular Devices) image analysis software. Both P. berghei liver schizont and HepG2 cytotoxicity data were loaded into CDD Vault for normalization and hit selection as described above. A total of 35 compounds were identified for resupply of fresh powder for confirmation in dose–response assays. […] Powders were diluted to 50 mM in DMSO and plated in 1000 × source plates as described above. […] Separately, two independent runs of the HepG2 cultured in galactose, assayed as described above, were used to assess the cytotoxicity potency and selectivity indices for these compounds. […] Receiver-operator characteristic (ROC) curves were generated using Graphpad Prism and area under the curve (AUC) was calculated using the Wilson/Brown method for both P. berghei liver schizont activity and HepG2 cytotoxicity.

[3] = test system: P. berghei liver schizonts; test: GHPB dose-response confirmation, FLAR luciferase endpoint; format: cell-based, Plasmodium berghei; conditions: grouped as selectively active, active but with low selectivity, nonselective or inactive
Protocol: A total of 35 compounds were identified for resupply of fresh powder for confirmation in dose–response assays. […] Powders were diluted to 50 mM in DMSO and plated in 1000 × source plates as described above. MMV390048 and puromycin were plated as the positive control for P. berghei liver schizont activity and cytotoxicity, respectively. Two independent experiments using 1 × FLAR and 5 × 10^3 cells/well were performed to assess the potency of these compounds against P. berghei liver schizonts, each with an independent production run of P. berghei sporozoites. […] Separately, two independent runs of the HepG2 cultured in galactose, assayed as described above, were used to assess the cytotoxicity potency and selectivity indices for these compounds. Both P. berghei liver schizont and HepG2 cytotoxicity data were loaded into CDD Vault for normalization, curve fitting, and EC50 calculations as described above. Receiver-operator characteristic (ROC) curves were generated using Graphpad Prism and area under the curve (AUC) was calculated using the Wilson/Brown method for both P. berghei liver schizont activity and HepG2 cytotoxicity.

For Cn1cc(CN2CCc3c(c(C(=O)NCc4nccs4)nn3Cc3ccccc3)C2)c2ccccc21 [MMV1167451], which EC50 [1] is on record?
Its EC50 is 6.3 µM.

For O=C(Nc1ncccc1O)c1ccc(N2CCOCC2)nc1 [MMV1103183], which “activity and selectivity in the primary screens” value [2] is on record?
Its value is “active and selective”.

And the “HepG2 Cytotoxicity (pEC50 ± SD)” value (HepG2 cells)?
Its value is 5.03 ± 0.02.

What about the “Activity (grouping in dose-response confirmation runs)” value [3] of the same compound?
The value was “active and selective”.

For CCCOc1ccc(C(F)(F)F)cc1NC(=O)c1nc2nccc(C)n2n1 [MMV1262756], which EC50 [1] is on record?
The EC50 was 0.105 µM.
